Tests used:
[1] = target: Nicotinic Acetylcholine α1, Bungarotoxin (Homo sapiens (Human), UniProt P02708+P07510+Q07001); experiment: Radioligand binding assay No. 258700; conditions: read-out: Inhibitory rate (%), Nicotinic Acetylcholine α1, Bungarotoxin
Sigmaσ1 = Sigmaσ1 (Homo sapiens (Human), UniProt Q99720); experiment: Radioligand binding assay No. 278110; conditions: test substance 10 μM, read-out: Inhibitory rate (%), Sigmaσ1
[2] = target: Epidermal Growth Factor (EGF) (Homo sapiens (Human), UniProt P00533); experiment: Radioligand binding assay No. 225510; conditions: test substance 10 μM, read-out: Inhibitory rate (%), Epidermal Growth Factor (EGF)
Epidermal Growth Factor (EGF), sequence (P00533 25-1210): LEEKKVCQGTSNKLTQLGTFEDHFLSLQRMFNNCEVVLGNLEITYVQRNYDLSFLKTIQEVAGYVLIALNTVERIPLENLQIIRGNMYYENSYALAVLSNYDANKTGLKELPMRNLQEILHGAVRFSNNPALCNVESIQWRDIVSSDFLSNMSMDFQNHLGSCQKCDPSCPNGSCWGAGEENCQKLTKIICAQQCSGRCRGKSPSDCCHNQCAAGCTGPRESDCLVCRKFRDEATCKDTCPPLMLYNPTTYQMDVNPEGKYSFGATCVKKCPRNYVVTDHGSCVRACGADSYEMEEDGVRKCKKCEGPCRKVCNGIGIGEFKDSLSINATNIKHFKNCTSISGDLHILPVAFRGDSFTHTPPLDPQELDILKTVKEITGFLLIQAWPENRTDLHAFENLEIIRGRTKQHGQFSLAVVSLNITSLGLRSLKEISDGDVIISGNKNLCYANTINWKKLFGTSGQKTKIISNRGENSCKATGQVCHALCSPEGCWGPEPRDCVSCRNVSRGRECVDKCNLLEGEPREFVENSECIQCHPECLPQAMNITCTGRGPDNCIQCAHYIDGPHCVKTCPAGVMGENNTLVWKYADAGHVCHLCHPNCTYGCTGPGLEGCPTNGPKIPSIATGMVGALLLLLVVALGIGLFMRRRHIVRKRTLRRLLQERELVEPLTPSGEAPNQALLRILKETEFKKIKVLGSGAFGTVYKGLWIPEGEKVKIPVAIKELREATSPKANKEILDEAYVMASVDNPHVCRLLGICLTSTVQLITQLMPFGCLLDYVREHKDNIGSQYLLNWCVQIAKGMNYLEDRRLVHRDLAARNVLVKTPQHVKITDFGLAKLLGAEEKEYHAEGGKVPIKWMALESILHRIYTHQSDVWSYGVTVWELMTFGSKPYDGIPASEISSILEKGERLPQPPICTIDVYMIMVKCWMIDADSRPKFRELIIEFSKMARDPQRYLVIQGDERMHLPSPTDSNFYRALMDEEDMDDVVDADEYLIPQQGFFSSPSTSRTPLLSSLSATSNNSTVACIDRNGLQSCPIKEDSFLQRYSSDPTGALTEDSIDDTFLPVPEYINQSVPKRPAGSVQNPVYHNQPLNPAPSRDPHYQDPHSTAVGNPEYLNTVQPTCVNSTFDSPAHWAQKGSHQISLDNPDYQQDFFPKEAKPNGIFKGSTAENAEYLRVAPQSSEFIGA

Potassium Channel [KATP] = experiment: Radioligand binding assay No. 265600; conditions: test substance 10 μM; Human
Adrenergic α1B = Adrenergic α1B (Rattus norvegicus (Rat), UniProt P15823); experiment: Radioligand binding assay No. 203200; conditions: test substance 10 μM, read-out: Inhibitory rate (%), Adrenergic α1B
Adrenergic α1B, sequence (P15823 whole entry): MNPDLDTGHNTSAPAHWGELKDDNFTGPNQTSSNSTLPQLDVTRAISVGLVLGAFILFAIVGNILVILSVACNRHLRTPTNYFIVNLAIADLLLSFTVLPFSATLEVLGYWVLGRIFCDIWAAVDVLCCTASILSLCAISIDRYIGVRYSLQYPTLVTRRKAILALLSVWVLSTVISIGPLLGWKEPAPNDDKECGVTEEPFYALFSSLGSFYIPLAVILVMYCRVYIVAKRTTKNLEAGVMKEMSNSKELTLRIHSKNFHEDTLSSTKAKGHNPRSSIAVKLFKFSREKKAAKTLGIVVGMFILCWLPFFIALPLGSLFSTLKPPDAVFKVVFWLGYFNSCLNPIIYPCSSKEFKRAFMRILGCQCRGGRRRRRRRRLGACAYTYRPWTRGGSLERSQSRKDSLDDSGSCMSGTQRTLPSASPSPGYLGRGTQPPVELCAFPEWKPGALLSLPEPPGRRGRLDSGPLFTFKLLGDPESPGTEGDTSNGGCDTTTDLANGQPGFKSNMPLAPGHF

Tachykinin NK1 = Tachykinin NK1 (Homo sapiens (Human), UniProt P25103); experiment: Radioligand binding assay No. 255520; conditions: test substance 10 μM, read-out: Inhibitory rate (%), Tachykinin NK1
Tachykinin NK1, sequence (P25103 whole entry): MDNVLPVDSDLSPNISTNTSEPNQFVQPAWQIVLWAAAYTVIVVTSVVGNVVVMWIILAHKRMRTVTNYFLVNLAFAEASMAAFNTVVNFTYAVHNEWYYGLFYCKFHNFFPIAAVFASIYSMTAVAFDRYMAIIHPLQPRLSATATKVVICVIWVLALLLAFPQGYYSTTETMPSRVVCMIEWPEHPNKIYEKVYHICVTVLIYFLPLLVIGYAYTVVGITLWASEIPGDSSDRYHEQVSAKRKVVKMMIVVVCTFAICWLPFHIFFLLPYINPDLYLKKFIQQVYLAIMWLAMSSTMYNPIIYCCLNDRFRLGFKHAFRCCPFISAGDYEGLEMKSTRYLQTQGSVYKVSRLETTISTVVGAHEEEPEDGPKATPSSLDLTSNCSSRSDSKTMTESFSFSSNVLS

mTOR = mTOR (Homo sapiens (Human), UniProt P42345); experiment: mTOR enzymatic assay; format: biochemical; conditions: read-out: In vitro enzymatic activity (IC50) mTOR
Procedure: Assay 1-2: In Vitro Enzymatic Inhibitory Activity of the Present Compound
1. Preparation of Agents:
• 1.1 1-fold kinase buffer: 50 mM HEPES, pH 7.5, 10 mM MgCl2, 1 mM EGTA, 3 mM MnCl2, 0.01% Tween-20, 2 mM DTT; • 1.2 4-fold kinase solution: mTOR kinase was added to 1-fold kinase buffer to form 4-fold kinase solution with a final concentration of 2.5 nM; • 1.3 2-fold substrate and ATP solution: the substrate 4EBP1 and ATP were added to 1-fold kinase buffer to form 2-fold substrate solution with final concentration of 50 nM of 4EBP1 and 10.8 μM of ATP; • 1.4 4-fold test substance solutions: 100-fold test substance solutions in different gradient concentrations were formulated with 100% DMSO, and diluted by 25 folds with 1-fold kinase buffer to form 4-fold test substance solutions in different gradient concentrations. • 1.5 Preparation of detection solution: a detection solution containing 2-fold final concentrations of EDTA and 4EBP1 phosphorylated antibody was formulated, wherein the final concentration for EDTA was 8 mM, and the final concentration for the 4EBP phosphorylated antibody was 2 nM. 2. Procedure • 2.1 To each well of a 384-well plate was added 2.5 μL of the 4-fold test substance solutions in gradient concentrations. The replication was made. • 2.2 To each well was added 2.5 μL of 4-fold kinase solution, and then the plate was incubated for 10 mins; • 2.3 Then to each well was added 5 μL/of 2-fold substrate and ATP solution, and then the plate was incubated at room temperature for 1 hour; • 2.4 Finally, 10 μL of the detection solution was added to terminate the reaction. After 60 mins, the data Lance signal ([…]) was read from Envision. 3 Data treatment Inhibition rate (%)=[…] • wherein: • maximum refers to the reading at the DMSO control well. • minimum refers to the reading at the control well without kinase, • The data was input into Graphpad Prism 5.0 to plot and obtain the curve and IC50 value. PI3Kα Enzymatic Assay 1. […] After 15 mins, the data Lance signal ([…]) was read from Envision. 3 Data treatment Inhibition rate (%)=100−(sample value−minimum)/(maximum−minimum)×100 • wherein: • maximum refers to the reading at the control well without kinase, • minimum refers to the reading at the DMSO control well, • The data was input into Graphpad Prism 5.0 to plot and obtain the curve and IC50 value. […]

Sigmaσ1, sequence (Q99720 whole entry): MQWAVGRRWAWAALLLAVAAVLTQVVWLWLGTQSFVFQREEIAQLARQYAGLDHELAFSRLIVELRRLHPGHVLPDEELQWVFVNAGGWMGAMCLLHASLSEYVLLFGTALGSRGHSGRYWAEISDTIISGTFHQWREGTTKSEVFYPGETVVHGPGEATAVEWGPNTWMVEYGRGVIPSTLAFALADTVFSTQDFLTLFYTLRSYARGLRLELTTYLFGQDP

SMILES | inhibition at 10 µM [1] | inhibition at 10 µM (Sigmaσ1) | inhibition at 10 µM [2] | Inhibitory rate (%), Potassium Channel [KATP] (Potassium Channel [KATP]) | inhibition at 10 µM (Adrenergic α1B) | inhibition at 10 µM (Tachykinin NK1) | IC50 (mTOR)
Nc1ccc(-c2ccc3ncc4c(=O)[nH]c(=O)n(-c5cccc(C(F)(F)F)c5)c4c3n2)cn1 [Compound 5, 9-(6-aminopyridin-3-yl)-1-(3-(trifluoromethyl)phenyl)pyrimido[5,4-c][1,5]naphthyridine-2,4(1H,3H)-dione] | 4% | 13% | 11% | 11% | 21% | 20% | 
O=c1[nH]c(=O)n(-c2cccc(C(F)(F)F)c2)c2c1cnc1ccc(-c3cnc4[nH]ccc4c3)nc12 [Compound 30, 9-(1H-pyrrolo[2,3-b]pyridin-5-yl)-1-(3-(trifluoromethyl)phenyl)pyrimido[5,4-c][1,5]naphthyridine-2,4(1H,3H)-dione] |  |  |  |  |  |  | 1.12 nM

From patent publication US9365572B2, “PI3K and/or mTOR inhibitor” (XUANZHU PHARMA CO., LTD., priority 2012, dated 2016)
